From US8586768B2, “Design, synthesis and functional characterization of rottlerin analogs” (priority 2009, dated 2013)

Columns and labels:
[1] = tested on: caspase-3 activity in N27 cells; test: MPP+-induced caspase-3 activity assay in N27 cells; type: cell-based, rat; conditions: for inhibition of MPP+-induced caspase-3 activity: MPP+ 24 hr, dose range 1-30 μM; for blockage of MPP+-induced caspase-3 activity: co-treated with 0.3, 1, 3 and 10 μM
Protocol: To determine whether PK analogs are neuroprotective against MPP+-induced increases in caspase-3 and DNA fragmentation, their effects on MPP+-induced increases in caspase-3 activity and DNA fragmentation, markers of apoptotic cell death, were examined.
The second generation PK analogs were further tested to determine whether the analogs are neuroprotective against MPP+-induced apoptotic cell death. The effects on MPP+-induced increases in caspase-3 enzymatic activity were analyzed, a marker of apoptotic cell death. […] At the end of the treatment, cytotoxicity was measured using the caspase-3 assay in a 96-well fluorescence microplate reader.
The third generation PK analogs were further tested to determine whether the analogs are neuroprotective against MPP+-induced apoptotic cell death. The effects on MPP+-induced increases in caspase-3 enzymatic activity were examined, a marker of apoptotic cell death. N27 cells were exposed to 300 μM MPP+ for 24 hr in the presence or absence of three different PK compounds in the dose range of 0.3-10 μM. At the end of the treatment, cytotoxicity was measured using the caspase-3 assay in a 96-well fluorescence microplate reader.
(§1) Rat mesencephalic dopaminergic clonal cells (N27) were used and maintained in RPMI 1640 complete medium supplemented with 10% Fetal Bovine Serum, 1% […] and 1% Penicillin/Streptomycin in a 37° C. incubator with 5% CO2. After 4-6 days in culture, the cells were used for the experiments.
(§2) N27 cells were exposed to MPP^+ for 24 hr in the presence or absence of PK analogs in the dose range of 1-30 μM.

[2] = molecular target: PKCδ (Homo sapiens, UniProt Q05655); test: In vitro 32P phosphorylation kinase assay with histone substrate; type: biochemical; conditions: 0.3-10 μM, pure recombinant PKCδ protein
Protocol: Since PK analogs are directed against PKCδ, it was first determined whether the analogs would inhibit PKCδ enzyme activity in kinase assays. The ability of lead PK analogs to inhibit purified human recombinant PKCδ enzyme activity by 32P phosphorylation kinase assay with histone as the substrate was measured. The in vitro kinase assays were performed with human recombinant PKCδ in the presence or absence of 0.3-10 μM lead PK analogs in the presence histone substrate, [^32P]-ATP and phospholipids. The extent of histone phosphorylation was determined after separation in SDS-PAGE and by phosphoimaging. IC50 was obtained using sigmoidal dose-response curve and non-linear regressional analysis using Graphpad Prism software.
In vitro kinase assays were performed with human recombinant PKCδ in the presence or absence of 0.3-10 μM lead PK analogs in the presence histone substrate, [^32P]-ATP and phospholipids. The extent of histone phosphorylation was determined after separation in SDS-PAGE and by phosphoimaging.

[3] = tested on: N27 cells; conditions: for toxicity of the analog at higher doses: 30 μM; for neuroprotection compared with rottlerin: caspase-3 activity and cytotoxic cell death; for blockage of MPP+-induced cytotoxicity: co-treated with 0.3, 1 and 3 μM
Protocol: (§3) At the end of the treatment, cytotoxicity was measured using the Sytox cell death assay in a 96-well fluorescence microplate reader.
A second generation of rottlerin analogs was further utilized for neuroprotection studies, as shown as PK201-203 in FIG. 2.
as §3
The analogs were tested in an N27 dopaminergic cell model for their neuroprotective properties. […] At the end of the treatment, cytotoxicity was measured using the Sytox cell death assay in a 96-well fluorescence microplate reader.
as §1, §2

[4] = Activity of simple rottlerin analogs compared with rottlerin (test not named)
Protocol: Design and Synthesis of Novel Rottlerin Analogs. Since Rottlerin has proven to be a difficult target to make synthetically, analogs have been developed and tested in an attempt to localize the region of activity and improve that activity. Initially, simple analogs of Rottlerin itself, obtained from CalBioChem (La Jolla, Calif., Cat #557370), were prepared and analyzed. Two compounds gave important results, one representing a simplified methylene linkage present in the parent compound (PK103), and the other (PK203) came from a simple bromination of natural Rottlerin.

PKCδ, sequence (Q05655 whole entry): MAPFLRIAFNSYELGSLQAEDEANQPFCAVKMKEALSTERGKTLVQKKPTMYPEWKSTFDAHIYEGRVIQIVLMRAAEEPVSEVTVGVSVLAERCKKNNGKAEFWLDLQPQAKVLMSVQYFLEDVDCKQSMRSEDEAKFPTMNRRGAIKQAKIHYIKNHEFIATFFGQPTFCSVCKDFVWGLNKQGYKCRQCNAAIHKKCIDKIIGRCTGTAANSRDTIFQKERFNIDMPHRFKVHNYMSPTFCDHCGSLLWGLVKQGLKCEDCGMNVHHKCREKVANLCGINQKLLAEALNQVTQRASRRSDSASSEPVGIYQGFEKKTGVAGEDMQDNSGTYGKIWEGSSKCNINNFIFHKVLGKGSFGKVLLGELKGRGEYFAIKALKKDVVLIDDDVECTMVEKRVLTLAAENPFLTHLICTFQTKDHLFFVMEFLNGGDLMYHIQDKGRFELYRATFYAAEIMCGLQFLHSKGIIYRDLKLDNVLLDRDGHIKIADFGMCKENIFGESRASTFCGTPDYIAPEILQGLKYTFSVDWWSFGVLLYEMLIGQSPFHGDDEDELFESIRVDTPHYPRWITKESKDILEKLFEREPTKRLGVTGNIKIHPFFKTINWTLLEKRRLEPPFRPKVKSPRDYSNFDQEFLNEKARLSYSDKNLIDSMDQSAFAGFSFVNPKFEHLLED

Compound	inhibition of MPP+-induced caspase-3 activity [1]	inhibition of PKCδ kinase activity [2]	toxicity of the analog at higher doses [3]	neuroprotection compared with rottlerin ([3]; MPP+ 24 hr)	inhibition of MPP+-induced cytotoxic cell death ([3]; MPP+ 24 hr, dose range 1-30 μM)	blockage of MPP+-induced caspase-3 activity ([1]; 300 μM MPP+ 24 hr)	blockage of MPP+-induced cytotoxicity ([3]; 300 μM MPP+ 24 hr)	activity compared with Rottlerin [4]	relative protection against MPP+-induced caspase-3 activity within the generation ([1]; 300 μM MPP+ 24 hr, 0.3-10 μM)	relative potency against MPP+-induced cytotoxic cell death within the generation ([3]; 300 μM MPP+ 24 hr)
COc1cc(OC)c(C(=O)/C=C/c2ccccc2)c2c1C=CC(C)(C)O2 [PK111]	almost completely inhibited	inhibited	toxic	better neuroprotection than the parent compound rottlerin	almost completely inhibited	–	–	–	–	–
COc1cc2c(c3c1C=CC(C)(C)O3)C(=O)CC(c1ccccc1)O2 (stereo not drawn) [PK112]	almost completely inhibited	inhibited	toxic	better neuroprotection than the parent compound rottlerin	–	–	–	–	–	–
CC(=O)c1c(O)c(C)c(O)c(Cc2c(O)c3c(c(C(=O)/C=C/c4ccccc4)c2O)OC(C)(C)CC3)c1O [PK201]	–	–	–	–	–	dose-dependent blockage	significant blockage	–	–	–
CC(=O)c1c(O)c(C)c(O)c(Cc2c(O)c(C(=O)/C=C/c3ccccc3)c3c(c2O)C(Br)C(Br)C(C)(C)O3)c1O (stereo not drawn) [PK203]	–	–	–	–	–	dose-dependent blockage	significant blockage	less activity than Rottlerin	–	–
CC(=O)c1c(O)cc(O)cc1O [PK303, acytyl phloroglucinol]	–	–	–	–	–	significant blockage	significant blockage	–	more effectively protect	more potent inhibitors than PK301
